Where two headings read alike, the source gives them in different places.
How the values were obtained:
CYP3A4(BFC) = CYP3A4(BFC) (Homo sapiens (Human), UniProt P08684); assay: CYP enzyme inhibition, fluorescent substrate BFC
Outline: (§1)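 Human CYP activity was followed by the fluorescence of the metabolized product of a known substrate, which falls as metabolism is inhibited. Compounds from 100 mM DMSO stocks were serially diluted 1:1 over 10 points in co-factor mix and preincubated 10 min at 37 °C. IC50 was fitted from signal versus concentration.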

CYP2C9 = CYP2C9 (Homo sapiens (Human), UniProt P11712); assay: CYP enzyme inhibition, fluorescent substrate (MFC)
Outline: as §1

CYP1A2 = CYP1A2 (Homo sapiens (Human), UniProt P05177); assay: CYP enzyme inhibition, fluorescent substrate (CEC)
Outline: (§2)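 Ten-point 1:1 compound dilutions in NADPH-regenerating cofactor mix, pre-incubated 10 min at 37 °C before enzyme/substrate addition: CYP1A2 0.5 pmol with 5 μM CEC, 15 min, 409 ex/460 em; CYP2D6 1.5 pmol with 1.5 μM AMMC, 30 min, 409 ex/530 em. IC50 from fluorescent product vs concentration.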

c-Raf-1 = c-Raf-1 (Homo sapiens, UniProt P04049); assay: c-Raf-1 kinase activity biochemical assay (AlphaScreen, biotin-MEK1 phosphorylation)
Outline: (§3)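 Biotin-MEK1 phosphorylation measured after 45 min kinase reaction at RT with 100 μM ATP final; compounds tested at 8 points from 0.1 mM DMSO stock.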

B-Raf V600E = B-Raf V600E (Homo sapiens (Human), UniProt P15056, V600E); assay: B-Raf V600E kinase activity biochemical assay (AlphaScreen, biotin-MEK1 phosphorylation); conditions: for IC50: B-Raf V600E; for Biochemical activity ratio V600E/C: ratio of IC50 B-Raf V600E / c-Raf-1
Outline: as §3

CYP3A4(BQ) = CYP3A4(BQ) (Homo sapiens (Human), UniProt P08684); assay: CYP enzyme inhibition, fluorescent substrate BQ
Experimental: CYP (Cytochrome P450) enzymes are the major drug metabolizing enzymes present in the liver. The inhibition of CYP enzyme activity (IC50) for each of CYP1A2, CYP2C19, CYP2C9, CYP2D6, CYP3A4(BFC) and CYP3A4(BQ) is determined for compounds, where inhibition of metabolism of a known substrate leads to a decrease in the fluorescence of the metabolized product. The fluorescence of the product is monitored as a function of compound concentration.
Compounds are dissolved in dimethyl sulfoxide to a concentration of 100 mM. These are diluted 1 μL into 82 μL of acetonitrile. […] These are then serially diluted 1:1 (160 μL to 160 μL co-factor mix) for a total of 10 points. A 10 μL aliquot of this final mixture is dispensed into 384 well assay plates and incubated for 10 minutes at 37° C. […] Assay plates are incubated at 37° C. […] The signal versus compound concentration is used to determine the IC50. The enzymes and substrates for this assay are obtained from BD Biosciences.

CYP2D6 = CYP2D6 (Homo sapiens (Human), UniProt P10635); assay: CYP enzyme inhibition, fluorescent substrate (AMMC); type: in vitro ADME; conditions: read-out: Cyp IC50 2D6
Outline: as §2

CYP2C19 = CYP2C19 (Homo sapiens (Human), UniProt P33261); assay: CYP enzyme inhibition, fluorescent substrate (CEC)
Outline: as §1

[1] = Relative solubility by turbidity threshold concentration in aqueous buffers (pH 1.5, 4.5, 6.8, 7.4); type: physicochemical; conditions: for turbidity threshold (L, M, H) 1.4: pH 1.4 [sic] (method: SGF pH 1.5); for turbidity threshold (L, M, H) 4.5: pH 4.5 (SIF); for turbidity threshold (L, M, H) 6.8: pH 6.8 (SIF); for turbidity threshold (L, M, H) 7.4: pH 7.4 (HEPES)
Outline: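 Solubility class (high >250 μM, moderate 31.3–250 μM, low <31.3 μM) comes from the concentration where absorbance reaches a 0.01 threshold, averaged across 490/535/650 nm. Samples were compound dilutions from DMSO stock, 1 μL into 99 μL buffer at pH 1.5, 4.5, 6.8 or 7.4.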

B-Raf [2] = molecular target: B-Raf (Homo sapiens (Human), UniProt P15056); assay: B-Raf kinase activity biochemical assay (AlphaScreen, biotin-MEK1 phosphorylation); conditions: B-Raf
Outline: as §3

B-Raf [3] = assay: as above; conditions: for Biochemical activity ratio B/V600E: ratio of IC50 B-Raf / B-Raf V600E; for Biochemical activity ratio B/C: ratio of IC50 B-Raf / c-Raf-1
Outline: as §3

[4] = read-out: Cyp IC50 3A4(BFC), CYP3A4, substrate BFC
[5] = read-out: Cyp IC50 2C9, CYP2C9, substrate MFC
[6] = read-out: Cyp IC50 3A4(BQ), CYP3A4, substrate BQ
[7] = read-out: Cyp IC50 2C19, CYP2C19, substrate CEC

CYP2C19, sequence (P33261 whole entry): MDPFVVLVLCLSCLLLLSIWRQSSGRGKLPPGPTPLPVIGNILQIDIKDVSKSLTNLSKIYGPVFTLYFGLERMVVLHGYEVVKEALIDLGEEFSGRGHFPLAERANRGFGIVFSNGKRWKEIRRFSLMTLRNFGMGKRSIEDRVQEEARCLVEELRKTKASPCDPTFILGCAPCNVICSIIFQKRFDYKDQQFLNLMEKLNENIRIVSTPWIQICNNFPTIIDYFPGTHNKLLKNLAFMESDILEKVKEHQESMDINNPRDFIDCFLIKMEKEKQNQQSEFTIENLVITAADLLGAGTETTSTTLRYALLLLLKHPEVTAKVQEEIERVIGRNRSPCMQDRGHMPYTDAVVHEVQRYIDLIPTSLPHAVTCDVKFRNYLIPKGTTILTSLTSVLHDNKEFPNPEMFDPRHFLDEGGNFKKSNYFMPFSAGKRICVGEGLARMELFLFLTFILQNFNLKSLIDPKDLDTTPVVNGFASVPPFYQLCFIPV
CYP2C9, sequence (P11712 whole entry): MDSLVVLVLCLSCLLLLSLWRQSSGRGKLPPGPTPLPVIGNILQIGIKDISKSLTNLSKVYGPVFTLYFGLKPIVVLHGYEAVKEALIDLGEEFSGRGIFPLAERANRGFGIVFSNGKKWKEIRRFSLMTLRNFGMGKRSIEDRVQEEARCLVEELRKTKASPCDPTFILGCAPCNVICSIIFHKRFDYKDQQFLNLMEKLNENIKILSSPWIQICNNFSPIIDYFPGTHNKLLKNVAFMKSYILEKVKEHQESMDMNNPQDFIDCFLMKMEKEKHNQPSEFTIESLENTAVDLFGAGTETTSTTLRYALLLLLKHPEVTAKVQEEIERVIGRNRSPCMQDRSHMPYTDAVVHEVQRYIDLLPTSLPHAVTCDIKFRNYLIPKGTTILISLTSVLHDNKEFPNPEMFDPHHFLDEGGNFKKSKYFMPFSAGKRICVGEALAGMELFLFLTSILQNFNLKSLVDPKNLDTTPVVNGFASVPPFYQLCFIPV
CYP2D6, sequence (P10635 whole entry): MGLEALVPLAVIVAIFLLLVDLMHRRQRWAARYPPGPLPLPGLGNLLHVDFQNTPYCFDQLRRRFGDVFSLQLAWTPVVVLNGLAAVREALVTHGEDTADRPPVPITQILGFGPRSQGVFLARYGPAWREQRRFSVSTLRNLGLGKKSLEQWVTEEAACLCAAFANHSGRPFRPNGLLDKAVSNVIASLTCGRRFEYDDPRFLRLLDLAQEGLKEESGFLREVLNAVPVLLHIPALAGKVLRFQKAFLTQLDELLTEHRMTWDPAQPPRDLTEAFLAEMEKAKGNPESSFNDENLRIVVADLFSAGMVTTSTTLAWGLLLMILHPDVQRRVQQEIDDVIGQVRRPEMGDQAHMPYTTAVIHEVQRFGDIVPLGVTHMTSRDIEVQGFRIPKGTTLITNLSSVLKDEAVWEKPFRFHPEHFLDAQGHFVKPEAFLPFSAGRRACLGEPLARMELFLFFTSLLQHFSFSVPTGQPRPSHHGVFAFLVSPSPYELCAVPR
CYP3A4(BFC), sequence (P08684 whole entry): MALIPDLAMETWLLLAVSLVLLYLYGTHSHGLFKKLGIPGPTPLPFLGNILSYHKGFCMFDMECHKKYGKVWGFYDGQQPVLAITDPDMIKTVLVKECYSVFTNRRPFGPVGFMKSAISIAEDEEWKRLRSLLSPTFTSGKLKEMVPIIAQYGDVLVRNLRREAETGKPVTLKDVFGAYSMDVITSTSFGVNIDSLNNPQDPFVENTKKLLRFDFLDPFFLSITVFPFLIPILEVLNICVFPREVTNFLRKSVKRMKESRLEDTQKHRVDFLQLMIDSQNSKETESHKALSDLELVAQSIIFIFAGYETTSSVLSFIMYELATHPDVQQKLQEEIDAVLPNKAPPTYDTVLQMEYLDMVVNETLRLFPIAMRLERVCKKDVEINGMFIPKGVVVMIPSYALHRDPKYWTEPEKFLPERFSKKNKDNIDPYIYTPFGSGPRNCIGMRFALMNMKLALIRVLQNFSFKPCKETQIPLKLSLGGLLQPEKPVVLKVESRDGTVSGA
CYP3A4(BQ), sequence (P08684 whole entry): as above
c-Raf-1, sequence (P04049 whole entry, looked up): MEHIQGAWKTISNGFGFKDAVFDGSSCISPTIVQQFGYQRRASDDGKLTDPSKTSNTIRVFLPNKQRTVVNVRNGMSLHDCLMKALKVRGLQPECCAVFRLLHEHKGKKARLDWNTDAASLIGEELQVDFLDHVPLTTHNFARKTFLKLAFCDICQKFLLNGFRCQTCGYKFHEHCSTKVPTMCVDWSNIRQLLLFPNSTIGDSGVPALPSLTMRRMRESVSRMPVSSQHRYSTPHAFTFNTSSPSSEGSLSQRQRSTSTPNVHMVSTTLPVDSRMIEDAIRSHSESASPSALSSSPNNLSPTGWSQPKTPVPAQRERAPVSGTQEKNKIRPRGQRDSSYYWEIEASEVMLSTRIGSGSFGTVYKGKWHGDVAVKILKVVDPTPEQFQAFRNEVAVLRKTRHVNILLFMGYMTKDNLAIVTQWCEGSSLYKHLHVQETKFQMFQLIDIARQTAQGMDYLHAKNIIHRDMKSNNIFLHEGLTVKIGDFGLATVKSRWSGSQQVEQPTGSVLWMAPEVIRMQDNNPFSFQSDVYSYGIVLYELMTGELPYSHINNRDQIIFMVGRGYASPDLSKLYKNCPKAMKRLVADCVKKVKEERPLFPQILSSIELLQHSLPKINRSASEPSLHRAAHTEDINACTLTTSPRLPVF
B-Raf (Homo sapiens (Human), UniProt P15056), sequence (P15056 whole entry): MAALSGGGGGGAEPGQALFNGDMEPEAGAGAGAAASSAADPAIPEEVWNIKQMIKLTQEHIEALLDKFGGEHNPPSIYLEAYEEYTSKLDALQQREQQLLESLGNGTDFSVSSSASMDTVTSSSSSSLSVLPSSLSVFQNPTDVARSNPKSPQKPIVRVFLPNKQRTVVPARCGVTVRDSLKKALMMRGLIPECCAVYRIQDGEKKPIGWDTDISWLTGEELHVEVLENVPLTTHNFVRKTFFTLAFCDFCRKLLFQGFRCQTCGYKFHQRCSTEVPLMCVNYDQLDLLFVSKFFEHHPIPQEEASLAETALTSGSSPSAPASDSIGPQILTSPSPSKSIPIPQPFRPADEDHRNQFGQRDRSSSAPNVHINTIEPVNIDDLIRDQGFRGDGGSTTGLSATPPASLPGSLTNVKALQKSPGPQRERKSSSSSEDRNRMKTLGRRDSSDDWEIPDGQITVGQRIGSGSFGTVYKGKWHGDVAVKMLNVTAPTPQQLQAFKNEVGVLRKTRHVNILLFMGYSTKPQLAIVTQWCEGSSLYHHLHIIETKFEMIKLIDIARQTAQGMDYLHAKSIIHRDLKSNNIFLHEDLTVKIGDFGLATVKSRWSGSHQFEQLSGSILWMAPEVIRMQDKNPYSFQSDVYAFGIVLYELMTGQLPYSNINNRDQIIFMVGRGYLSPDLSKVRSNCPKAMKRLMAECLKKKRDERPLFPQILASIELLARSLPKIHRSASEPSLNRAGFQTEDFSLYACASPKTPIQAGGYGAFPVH
CYP1A2, sequence (P05177 whole entry): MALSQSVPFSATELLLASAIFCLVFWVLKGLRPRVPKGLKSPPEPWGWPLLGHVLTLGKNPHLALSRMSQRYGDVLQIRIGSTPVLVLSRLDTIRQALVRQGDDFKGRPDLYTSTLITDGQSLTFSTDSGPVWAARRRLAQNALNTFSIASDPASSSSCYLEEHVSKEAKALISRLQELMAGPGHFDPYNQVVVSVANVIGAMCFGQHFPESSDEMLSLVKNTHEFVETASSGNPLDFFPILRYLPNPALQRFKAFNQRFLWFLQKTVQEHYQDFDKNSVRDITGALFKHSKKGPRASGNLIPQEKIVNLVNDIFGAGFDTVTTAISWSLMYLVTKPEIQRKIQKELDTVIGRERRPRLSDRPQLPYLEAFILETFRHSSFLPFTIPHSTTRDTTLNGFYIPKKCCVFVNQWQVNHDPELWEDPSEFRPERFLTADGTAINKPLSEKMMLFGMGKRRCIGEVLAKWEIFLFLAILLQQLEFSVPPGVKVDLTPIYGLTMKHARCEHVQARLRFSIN
B-Raf V600E, sequence (P15056 whole entry V600E): as the sequence (P15056 whole entry) above, with V600E counted along it

CCCS(=O)(=O)Nc1ccc(F)c(C(=O)c2c[nH]c3ncnc(NC4CCOCC4)c23)c1F [P-1047, Propane-1-sulfonic acid {2,4-difluoro-3-[4-(tetrahydro-pyran-4-ylamino)-7H-pyrrolo[2,3-d]pyrimidine-5-carbonyl]-phenyl}-amide]
IC50 (CYP3A4(BFC); [4]): > 10 µM
IC50 (CYP2C9; [5]): > 10 µM
IC50 (CYP1A2; read-out: Cyp IC50 1A2, CYP1A2, substrate CEC): > 10 µM
IC50 (c-Raf-1): < 0.1 µM
IC50 (B-Raf V600E): < 0.1 µM
Biochemical activity ratio V600E/C (B-Raf V600E): >10
IC50 (CYP3A4(BQ); [6]): > 10 µM
IC50 (CYP2D6): > 10 µM
IC50 (CYP2C19; [7]): > 10 µM
turbidity threshold (L, M, H) 1.4 [1]: M (moderate solubility if the threshold concentration is 31.3 μM to 250 μM)
turbidity threshold (L, M, H) 4.5 [1]: L (low solubility if the threshold concentration is <31.3 μM)
turbidity threshold (L, M, H) 6.8 [1]: L (low solubility if the threshold concentration is <31.3 μM)
turbidity threshold (L, M, H) 7.4 [1]: L (low solubility if the threshold concentration is <31.3 μM)
IC50 (B-Raf [2]): < 0.1 µM
Biochemical activity ratio B/V600E (B-Raf [3]): 0.1-10
Biochemical activity ratio B/C (B-Raf [3]): >10

CCCS(=O)(=O)Nc1ccc(F)c(C(=O)c2c[nH]c3ncc(Cl)c(C#N)c23)c1F [P-2007, Propane-1-sulfonic acid [3-(5-chloro-4-cyano-1H-pyrrolo[2,3-b]pyridine-3-carbonyl)-2,4-difluoro-phenyl]-amide]
IC50 (CYP3A4(BFC)): > 10 µM
IC50 (CYP2C9): < 5 µM
IC50 (CYP1A2): > 10 µM
IC50 (c-Raf-1): < 0.1 µM
IC50 (B-Raf V600E): < 0.1 µM
Biochemical activity ratio V600E/C (B-Raf V600E): 0.1-10
IC50 (CYP3A4(BQ)): > 10 µM
IC50 (CYP2D6): > 10 µM
IC50 (CYP2C19): > 10 µM
turbidity threshold (L, M, H) 1.4 [1]: M (moderate solubility if the threshold concentration is 31.3 μM to 250 μM)
turbidity threshold (L, M, H) 4.5 [1]: M (moderate solubility if the threshold concentration is 31.3 μM to 250 μM)
turbidity threshold (L, M, H) 6.8 [1]: M (moderate solubility if the threshold concentration is 31.3 μM to 250 μM)
turbidity threshold (L, M, H) 7.4 [1]: M (moderate solubility if the threshold concentration is 31.3 μM to 250 μM)
IC50 (B-Raf [2]): < 0.1 µM
Biochemical activity ratio B/V600E (B-Raf [3]): 0.1-10
Biochemical activity ratio B/C (B-Raf [3]): 0.1-10

CCCc1ccc(S(=O)(=O)Nc2ccc(F)c(C(=O)c3c[nH]c4ncnc(C)c34)c2F)cc1 [P-1007, N-[2,4-Difluoro-3-(4-methyl-7H-pyrrolo[2,3-d]pyrimidine-5-carbonyl)-phenyl]-4-propyl-benzenesulfonamide]
IC50 (CYP3A4(BFC)): 5 to 10 µM
IC50 (CYP2C9; [5]): > 10 µM
IC50 (CYP1A2; human, 15 min): > 10 µM
IC50 (c-Raf-1): < 0.1 µM
IC50 (B-Raf V600E): > 0.1 µM
Biochemical activity ratio V600E/C (B-Raf V600E): >10
IC50 (CYP3A4(BQ)): 5 to 10 µM
IC50 (CYP2D6): > 10 µM
IC50 (CYP2C19; [7]): > 10 µM
turbidity threshold (L, M, H) 1.4 [1]: L (low solubility if the threshold concentration is <31.3 μM)
turbidity threshold (L, M, H) 4.5 [1]: L (low solubility if the threshold concentration is <31.3 μM)
turbidity threshold (L, M, H) 6.8 [1]: L (low solubility if the threshold concentration is <31.3 μM)
turbidity threshold (L, M, H) 7.4 [1]: L (low solubility if the threshold concentration is <31.3 μM)
IC50 (B-Raf [2]): < 0.1 µM
Biochemical activity ratio B/V600E (B-Raf [3]): 0.1-10
Biochemical activity ratio B/C (B-Raf [3]): 0.1-10

CCCS(=O)(=O)Nc1ccc(F)c(C(=O)c2c[nH]c3ncnc(Nc4ccccc4)c23)c1F [P-1048, Propane-1-sulfonic acid [2,4-difluoro-3-(4-phenylamino-7H-pyrrolo[2,3-d]pyrimidine-5-carbonyl)-phenyl]-amide]
IC50 (CYP3A4(BFC); [4]): > 10 µM
IC50 (CYP2C9; [5]): > 10 µM
IC50 (CYP1A2; human, 15 min): > 10 µM
IC50 (B-Raf V600E): < 0.1 µM
IC50 (CYP3A4(BQ); [6]): > 10 µM
IC50 (CYP2D6): > 10 µM
IC50 (CYP2C19; [7]): > 10 µM

Cc1nn(C)cc1Nc1ncnc2[nH]cc(C(=O)c3c(F)ccc(NS(=O)(=O)c4ccccc4F)c3F)c12 [P-1154, N-{3-[4-(1,3-Dimethyl-1H-pyrazol-4-ylamino)-7H-pyrrolo[2,3-d]pyrimidine-5-carbonyl]-2,4-difluoro-phenyl}-2-fluoro-benzenesulfonamide]
IC50 (CYP3A4(BFC); [4]): > 10 µM
IC50 (CYP2C9; [5]): > 10 µM
IC50 (CYP1A2; human, 15 min): > 10 µM
IC50 (CYP3A4(BQ); [6]): > 10 µM
IC50 (CYP2D6): > 10 µM
IC50 (CYP2C19; [7]): > 10 µM
turbidity threshold (L, M, H) 1.4 [1]: L (low solubility if the threshold concentration is <31.3 μM)
turbidity threshold (L, M, H) 4.5 [1]: L (low solubility if the threshold concentration is <31.3 μM)
turbidity threshold (L, M, H) 6.8 [1]: L (low solubility if the threshold concentration is <31.3 μM)
turbidity threshold (L, M, H) 7.4 [1]: L (low solubility if the threshold concentration is <31.3 μM)

CCCS(=O)(=O)Nc1ccc(F)c(C(=O)c2c[nH]c3ncnc(Nc4cccnc4)c23)c1F [P-1078, Propane-1-sulfonic acid {2,4-difluoro-3-[4-(pyridin-3-ylamino)-7H-pyrrolo[2,3-d]pyrimidine-5-carbonyl]-phenyl}-amide]
IC50 (CYP3A4(BFC); [4]): > 10 µM
IC50 (CYP2C9; [5]): < 5 µM
IC50 (CYP1A2; human, 15 min): > 10 µM
IC50 (CYP3A4(BQ)): 5 to 10 µM
IC50 (CYP2D6): > 10 µM
IC50 (CYP2C19; [7]): > 10 µM
turbidity threshold (L, M, H) 1.4 [1]: M (moderate solubility if the threshold concentration is 31.3 μM to 250 μM)
turbidity threshold (L, M, H) 4.5 [1]: L (low solubility if the threshold concentration is <31.3 μM)
turbidity threshold (L, M, H) 6.8 [1]: L (low solubility if the threshold concentration is <31.3 μM)
turbidity threshold (L, M, H) 7.4 [1]: L (low solubility if the threshold concentration is <31.3 μM)

O=C(c1c(F)ccc(NS(=O)(=O)c2ccccc2F)c1F)c1c[nH]c2ncnc(NC3CC3)c12 [P-1103, N-[3-(4-Cyclopropylamino-7H-pyrrolo[2,3-d]pyrimidine-5-carbonyl)-2,4-difluoro-phenyl]-2-fluoro-benzenesulfonamide]
IC50 (CYP3A4(BFC); [4]): > 10 µM
IC50 (CYP2C9; [5]): > 10 µM
IC50 (CYP1A2; human, 15 min): > 10 µM
IC50 (CYP3A4(BQ); [6]): > 10 µM
IC50 (CYP2D6): > 10 µM
IC50 (CYP2C19; [7]): > 10 µM
turbidity threshold (L, M, H) 1.4 [1]: M (moderate solubility if the threshold concentration is 31.3 μM to 250 μM)
turbidity threshold (L, M, H) 4.5 [1]: L (low solubility if the threshold concentration is <31.3 μM)
turbidity threshold (L, M, H) 6.8 [1]: L (low solubility if the threshold concentration is <31.3 μM)
turbidity threshold (L, M, H) 7.4 [1]: M (moderate solubility if the threshold concentration is 31.3 μM to 250 μM)
